Data from patent US9120808B2 (NABRIVA THERAPEUTICS AG, priority 2009, dated 2015).
Like-named read-outs stand apart in the source and are kept apart here.

Key:
SHV-1 β-lactamase = SHV-1 β-lactamase (Klebsiella pneumoniae, UniProt P0AD64); assay: Cell-free β-lactamase inhibition study (nitrocefin hydrolysis); format: biochemical; details: 10 min pre-incubation at 37° C., nitrocefin substrate
Experimental: (§1) Cell-Free-β-Lactamase Inhibition Study
(§2) Assays are performed with β-lactamases expressed in the pET system (Novagen, San Diego, Calif.) without signal peptides. They contain an N-terminal hexa-Histidine tag that is used for purification on Ni-NTA (Qiagen, Hilden, Germany). The compounds are prepared as 50 mM stocks in DMSO and diluted into buffer P1 (50 mM phosphate, pH 7) to a final concentration of 10% DMSO. All further dilutions are done in P2 (P1 with 10% DMSO). Enzyme and compound dilutions are pre-incubated for 10 min at 37° C. and the reaction is started with the addition of pre-warmed (37° C.) nitrocefin at a final concentration of […]. […] The initial velocity is determined and IC50 values are calculated using non-linear regression and sigmoidal dose response analysis with the PRISM 4.0 software (Graphpad Software Inc., San Diego, Calif.).

TEM-1 β-lactamase = TEM-1 β-lactamase (Escherichia coli, UniProt P62593); assay: as above; format: biochemical; details: 10 min pre-incubation at 37° C., nitrocefin substrate
TEM-1 β-lactamase, sequence (P62593 whole entry, looked up): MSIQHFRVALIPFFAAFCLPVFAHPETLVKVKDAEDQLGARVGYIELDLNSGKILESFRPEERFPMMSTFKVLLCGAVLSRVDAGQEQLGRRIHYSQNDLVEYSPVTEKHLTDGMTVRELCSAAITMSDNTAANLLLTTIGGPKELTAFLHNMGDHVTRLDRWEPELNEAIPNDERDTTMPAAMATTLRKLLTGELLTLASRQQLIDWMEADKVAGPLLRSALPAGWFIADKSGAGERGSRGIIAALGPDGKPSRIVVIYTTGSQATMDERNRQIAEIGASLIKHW
Experimental: as §1, §2

SHV-1 β-lactamase, sequence (P0AD64 whole entry, looked up): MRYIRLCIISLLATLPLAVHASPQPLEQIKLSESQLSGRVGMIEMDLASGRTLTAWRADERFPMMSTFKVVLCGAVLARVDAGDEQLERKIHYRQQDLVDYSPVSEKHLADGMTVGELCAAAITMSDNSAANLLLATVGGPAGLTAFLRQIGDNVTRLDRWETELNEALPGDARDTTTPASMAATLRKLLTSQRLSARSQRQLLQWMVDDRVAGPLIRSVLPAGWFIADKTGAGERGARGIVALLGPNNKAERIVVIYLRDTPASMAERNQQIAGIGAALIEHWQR

Row | Structure (SMILES) | IC50 (SHV-1 β-lactamase; SHV-1, read-out: IC50) | IC50 (TEM-1 β-lactamase) | IC50 (SHV-1 β-lactamase; IC50, SHV-1)
1 | O=CC=C1O[C@@H]2CC(=O)N2C1(C/C=C/c1ccccc1)C(=O)OCc1ccccc1 (single isomer, unassigned) [Example 6] | 3950 nM | 2790 nM | –
2 | O=CC=C1O[C@@H]2CC(=O)N2C1(CC=CCO)C(=O)OCc1ccccc1 (single isomer, unassigned) [Example 8] | – | 5640 nM | –
3 | O=CC=C1O[C@@H]2CC(=O)N2C1(CC=CCO)C(=O)OCc1ccccc1 (single isomer, unassigned) [Example 9] | 1040 nM | 828 nM | –
4 | COC(=O)C1(C/C=C/c2ccccc2)C(=CC=O)O[C@@H]2CC(=O)N21 (single isomer, unassigned) [Example 14] | 85100 nM | 19600 nM | –
5 | COC(=O)C1(C/C=C/c2ccccc2)C(=CC=O)O[C@@H]2CC(=O)N21 (single isomer, unassigned) [Example 15] | 4430 nM | 4270 nM | –
6 | O=C(O)C=C1O[C@@H]2CC(=O)N2C1(C/C=C/c1ccccc1)C(=O)OCc1ccccc1 (single isomer, unassigned) [Example 27] | 624 nM | 426 nM | –
7 | O=C(O)C=C1O[C@@H]2CC(=O)N2C1(C/C=C/c1ccccc1)C(=O)OCc1ccccc1 (single isomer, unassigned) [Example 28] | 9320 nM | 45700 nM | –
8 | COC(=O)C1(C/C=C/c2ccccc2)C(=CC(=O)O)O[C@@H]2CC(=O)N21 (single isomer, unassigned) [Example 35] | 2310 nM | 1560 nM | –
9 | COC(=O)C1(C/C=C/c2ccccc2)C(=CC(=O)O)O[C@@H]2CC(=O)N21 (single isomer, unassigned) [Example 36] | 642 nM | 408 nM | –
10 | O=C1OC(CI)CC1=C1O[C@@H]2CC(=O)N2C1C(=O)OCc1ccccc1 (single isomer, unassigned) [Example 41] | 0.4 nM | 0.2 nM | –
11 | O=C1OC(CI)CC1=C1O[C@@H]2CC(=O)N2C1C(=O)OCc1ccccc1 (single isomer, unassigned) [Example 42] | 0.8 nM | 1.7 nM | –
12 | CC1C/C(=C2\O[C@@H]3CC(=O)N3C2C(=O)OCc2ccccc2)C(=O)O1 (single isomer, unassigned) [Example 45] | – | 1.7 nM | 3.4 nM
13 | CC1C/C(=C2\O[C@@H]3CC(=O)N3C2C(=O)OCc2ccccc2)C(=O)O1 (single isomer, unassigned) [Example 46] | 0.5 nM | 0.4 nM | –
14 | C=CCC(C=O)=C1O[C@@H]2CC(=O)N2C1C(=O)OCc1ccccc1 (stereo partly drawn) [Example 1, (5R)-3-(1-Formyl-but-3-enylidene)-7-oxo-4-oxa-1-aza-bicyclo[3.2.0]heptane-2-carboxylic acid benzyl ester] | – | 66.6 nM | –
15 | C=CCC1(C(=O)OCc2ccccc2)C(=CC=O)O[C@@H]2CC(=O)N21 (stereo partly drawn) [Example 2, (5R)-2-Allyl-7-oxo-3-[2-oxo-ethylidene]-4-oxa-1-aza-bicyclo[3.2.0]heptane-2-carboxylic acid benzyl ester] | – | 945 nM | –
16 | C=CCC(C=O)=C1O[C@@H]2CC(=O)N2C1(CC=C)C(=O)OCc1ccccc1 (stereo partly drawn) [Example 3, (5R)-2-Allyl-3-[1-formyl-but-3-enylidene]-7-oxo-4-oxa-1-aza-bicyclo[3.2.0]heptane-2-carboxylic acid benzyl ester] | – | 8390 nM | –
17 | O=CC(C/C=C/c1ccccc1)=C1O[C@@H]2CC(=O)N2C1C(=O)OCc1ccccc1 (stereo partly drawn) [Example 4, (5R)-3-[1-Formyl-4-phenyl-but-3-enylidene]-7-oxo-4-oxa-1-aza-bicyclo[3.2.0]heptane-2-carboxylic acid benzyl ester] | – | 89 nM | –
18 | O=CC=C1O[C@@H]2CC(=O)N2C1(C/C=C/c1ccccc1)C(=O)OCc1ccccc1 (stereo partly drawn) [Example 5, (5R)-7-oxo-3-[2-oxo-ethylidene]-2-(3-phenyl-allyl)-4-oxa-1-aza-bicyclo[3.2.0]heptane-2-carboxylic acid benzyl ester] | 7140 nM | 4920 nM | –

Row | Structure (SMILES) | IC50 (SHV-1 β-lactamase; SHV-1, read-out: IC50) | IC50 (TEM-1 β-lactamase) | IC50 (SHV-1 β-lactamase; IC50, SHV-1)
19 | O=CC(CC=CCO)=C1O[C@@H]2CC(=O)N2C1C(=O)OCc1ccccc1 (stereo partly drawn) [Example 7, (5R)-3-[1-Formyl-5-hydroxy-pent-3-enylidene]-7-oxo-4-oxa-1-aza-bicyclo[3.2.0]heptane-2-carboxylic acid benzyl ester] | – | 78.4 nM | 217 nM
20 | CC(=O)OCC=CCC(C=O)=C1O[C@@H]2CC(=O)N2C1C(=O)OCc1ccccc1 (stereo partly drawn) [Example 10, (5R)-3-[5-Acetoxy-1-formyl-pent-3-enylidene]-7-oxo-4-oxa-1-aza-bicyclo[3.2.0]heptane-2-carboxylic acid benzyl ester] | – | 140 nM | –
21 | CC(=O)OCC=CCC1(C(=O)OCc2ccccc2)C(=CC=O)O[C@@H]2CC(=O)N21 (stereo partly drawn) [Example 11, (5R)-2-(4-Acetoxy-but-2-enyl)-7-oxo-3-[2-oxo-ethylidene]-4-oxa-1-aza-bicyclo[3.2.0]heptane-2-carboxylic acid benzyl ester] | – | 7310 nM | –
22 | CC(=O)OCC=CCC1(C(=O)OCc2ccccc2)C(=CC=O)O[C@@H]2CC(=O)N21 (stereo partly drawn) [Example 12, (5R)-2-(4-Acetoxy-but-2-enyl)-7-oxo-3-[2-oxo-ethylidene]-4-oxa-1-aza-bicyclo[3.2.0]heptane-2-carboxylic acid benzyl ester] | – | 5900 nM | –
23 | COC(=O)C1C(=C(C=O)C/C=C/c2ccccc2)O[C@@H]2CC(=O)N12 (stereo partly drawn) [Example 13] | – | 639 nM | –
24 | C=CCC(C=O)=C1O[C@@H]2CC(=O)N2C1C(=O)OC (stereo partly drawn) [Example 16, (5R)-3-[1-Formyl-but-3-enylidene]-7-oxo-4-oxa-1-aza-bicyclo[3.2.0]heptane-2-carboxylic acid methyl ester] | 80.5 nM | 65.2 nM | –
25 | C=CCC1(C(=O)OC)C(=CC=O)O[C@@H]2CC(=O)N21 (stereo partly drawn) [Example 17, (5R)-2-Allyl-7-oxo-3-[2-oxo-ethylidene]-4-oxa-1-aza-bicyclo[3.2.0]heptane-2-carboxylic acid methyl ester] | 21300 nM | 13300 nM | –
26 | CC(C)(C)C(=O)OCOC(=O)C1C(=C(C=O)C/C=C/c2ccccc2)O[C@@H]2CC(=O)N12 (stereo partly drawn) [Example 18, (5R)-3-[1-Formyl-4-phenyl-but-3-enylidene]-7-oxo-4-oxa-1-aza-bicyclo[3.2.0]heptane-2-carboxylic acid 2,2-dimethyl-propionyloxymethyl ester] | 13.9 nM | 27.1 nM | –
27 | CC(C)(C)C(=O)OCOC(=O)C1(C/C=C/c2ccccc2)C(=CC=O)O[C@@H]2CC(=O)N21 (stereo partly drawn) [Example 19, (5R)-7-oxo-3-(2-oxo-ethylidene)-2-(3-phenyl-allyl)-4-oxa-1-aza-bicyclo[3.2.0]heptane-2-carboxylic acid 2,2-dimethyl-propionyloxymethyl ester] | 617 nM | 871 nM | –
28 | C=CCC(C(=O)O)=C1O[C@@H]2CC(=O)N2C1C(=O)OCc1ccccc1 (stereo partly drawn) [Example 24, (5R)-3-(1-Carboxy-but-3-enylidene)-7-oxo-4-oxa-1-aza-bicyclo[3.2.0]heptane-2-carboxylic acid benzyl ester] | 62.2 nM | 30.6 nM | –
29 | O=C(O)C(C/C=C/c1ccccc1)=C1O[C@@H]2CC(=O)N2C1C(=O)OCc1ccccc1 (stereo partly drawn) [Example 26, (5R)-3-[1-Carboxy-4-phenyl-but-3-enylidene]-7-oxo-4-oxa-1-aza-bicyclo[3.2.0]heptane-2-carboxylic acid benzyl ester] | 36.3 nM | 9.2 nM | –
30 | C=CCC(C(=O)O)=C1O[C@@H]2CC(=O)N2C1C(=O)OC (stereo partly drawn) [Example 32, (5R)-3-(1-Carboxy-but-3-enylidene)-7-oxo-4-oxa-1-aza-bicyclo[3.2.0]heptane-2-carboxylic acid methyl ester] | 339 nM | 122 nM | –
31 | COC(=O)C1C(=C(C/C=C/c2ccccc2)C(=O)O)O[C@@H]2CC(=O)N12 (stereo partly drawn) [Example 34, (5R)-3-(1-Carboxy-4-phenyl-but-3-enylidene)-7-oxo-4-oxa-1-aza-bicyclo[3.2.0]heptane-2-carboxylic acid methyl ester] | 50.3 nM | 21.7 nM | –
32 | CC(C)(C)C(=O)OCOC(=O)C1C(=C(C/C=C/c2ccccc2)C(=O)O)O[C@@H]2CC(=O)N12 (stereo partly drawn) [Example 37, (5R)-3-(1-Carboxy-4-phenyl-but-3-enylidene)-7-oxo-4-oxa-1-aza-bicyclo[3.2.0]heptane-2-carboxylic acid 2,2-dimethyl-propionyloxymethyl ester] | 141 nM | 44.2 nM | –
33 | C=CC/C(CO)=C1\O[C@@H]2CC(=O)N2C1C(=O)OCc1ccccc1 (stereo partly drawn) [Example 38, (5R)-3-[1-Hydroxymethyl-but-3-en-(E)-ylidene]-7-oxo-4-oxa-1-aza-bicyclo[3.2.0]heptane-2-carboxylic acid benzyl ester] | 6810 nM | 8020 nM | –
34 | C=CCC1(C(=O)OCc2ccccc2)/C(=C/CO)O[C@@H]2CC(=O)N21 (stereo partly drawn) [Example 40, (5R)-2-Allyl-3-[2-hydroxy-ethylidene]-7-oxo-4-oxa-1-aza-bicyclo[3.2.0]heptane-2-carboxylic acid benzyl ester] | – | 23600 nM | –
35 | CC1CC(=C2O[C@@H]3CC(=O)N3C2C(=O)O)C(=O)O1 (stereo partly drawn) [Example 50, (5R)-3-(5-Methyl-2-oxo-dihydro-furan-3-ylidene)-7-oxo-4-oxa-1-aza-bicyclo[3.2.0]heptane-2-carboxylic acid] | – | 4.2 nM | –
36 | COC(=O)C1/C(=C2/CC(CI)OC2=O)O[C@@H]2CC(=O)N12 (stereo partly drawn) [Mixture of Example 43 and Example 44] | 4.3 nM | – | –
